From patent publication US20070232492A1, “Herbicidal Composition” (Ishihara Sangyo Kaisha, LTD., priority 2004, published 2007)
Where two headings read alike, the source gives them in different places.

Experiments:
Type in all cases: in vivo
[1] = test system: barnyardgrass (Echinochloa oryzicola vasing); test: Growth inhibition of barnyardgrass in paddy soil pots, application under submerged condition, visual rating (observed value) and Colby expected value; conditions: Echinochloa oryzicola, soil, read-out: Growth inhibition rate (%) Observed; for inhibition at 2.3 g/ha: 0.023 g/a; for inhibition at 4.5 g/ha: 0.045 g/a
How it was run: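 Barnyardgrass (Echinochloa oryzicola vasing) seeds were sown in paddy field soil in 1/10,000 are pots and kept irrigated at a water depth of 3.5 cm. Wettable powders of the active ingredients were diluted with water and applied under submerged conditions at the prescribed amounts. Growth was visually scored from 0% (as untreated) to 100% (complete kill), and expected values were calculated with Colby's formula.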

[2] = test system: flatsedge (Cyperus serotinus); test: Growth inhibition of flatsedge (planted tubers) in paddy soil pots, application under submerged condition, visual rating and Colby expected value; conditions: Cyperus serotinus, soil, 696 h, 2.8 to 3.2 leaf stage, 29 days after application, read-out: Growth inhibition rate (%) Observed
Source text: (§1) When the herbicidal activity in a case where two active ingredients are combined, is larger than the simple sum of the respective herbicidal activities of the two active ingredients (the expected activity), it is called a synergistic effect. The activity expected by the combination of two active ingredients can be calculated as follows (Colby S. R., “Weed”, vol. 15, p. 20-22, 1967). E=p+q−(p×q÷100) where p: growth inhibition rate when treated with x (g/a) of herbicide X,
(§2) q: growth inhibition rate when treated with y (g/a) of herbicide Y,
(§3) E: growth inhibition rate expected when treated with x (g/a) of herbicide X and y (g/a) of herbicide Y.
(§4) Namely, when the actual growth inhibition rate (observed value) is larger than the growth inhibition rate by the above calculation (expected value), the activity by the combination can be regarded as showing a synergistic effect.
(§5) Growth inhibition rate (%)=0% (equivalent to the non-treated area) to 100% (complete kill)
(§6) Paddy field soil was put into a 1/10,000 are pot, and tubers of flatsedge (Cyperus serotinus) were planted and left to stand under an irrigated condition with a water depth of 3.5 cm. When flatsedge reached 2.8 to 3.2 leaf stage, wettable powders of compound A2 and compound (B1.2) were, respectively, diluted with water and applied under submerged condition so that the active ingredients became the prescribed amounts, respectively. The state of growth was visually observed 29 days after application, and evaluation and calculation were carried out in the same manner as in the above Test Example 1.
Paddy field soil was put into a 1/3,000 are pot, and tubers of flatsedge (Cyperus serotinus) were planted and left to stand under an irrigated condition with a water depth of 3.5 cm. When flatsedge reached 4 leaf stage, a wettable powder of compound A2 and an emulsifiable concentrate of compound C4 were, respectively, diluted with water and applied under submerged condition so that the active ingredients became the prescribed amounts, respectively. The state of growth was visually observed 21 days after application, and the growth inhibition rate (%) evaluated in the same manner as in the above Test Example 1 (observed value) and the growth inhibition rate (%) calculated by the above-mentioned Colby method (expected value) are shown in Table 32.
as §6, with “2.5” for “2.8”, “3.0” for “3.2”, “A2, compound (D2.3)” for “A2”, “(B4.1)” for “(B1.2)”, “30” for “29”, “evaluated” for “evaluation and calculation were carried out”
as §6, with “2.5” for “2.8”, “3.0” for “3.2”, “A2, compound (D2.3)” for “A2”, “(B6.1)” for “(B1.2)”, “30” for “29”, “evaluated” for “evaluation and calculation were carried out”
Paddy field soil was put into a 1/10,000 are pot, and tubers of flatsedge (Cyperus serotinus) were planted and left to stand under an irrigated condition with a water depth of 3.5 cm. When flatsedge reached 2.5 to 3.0 leaf stage, wettable powders of compound A2, compound (D2.3) and compound (B8.1) were, respectively, diluted with water and applied under submerged condition so that the active ingredients became the prescribed amounts, respectively. […]

[3] = Growth inhibition of mixed broadleaf paddy weeds in paddy soil pots, application under submerged condition, visual rating and Colby expected value; conditions: mixed broadleaf paddy weeds, soil, 504 h; 0.12 g/a; false pimpernel one leaf-pair stage; 21 days after application; read-out: Growth inhibition rate (%) Observed
Source text: as §1, §2, §3, §4, §5
Paddy field soil was put into a 1/1,700 are pot, and mixed seeds of false pimpernel (Lindernia pyxidaria), abunome (Dopatrium junceum), long stem waterwort (Elatine triandra SCHK.) and toothcup (Rotala india) were sown and left to stand under an irrigated condition with a water depth of 3.5 cm. When false pimpernel reached one leaf-pair stage, wettable powders of compound A2 and compound (B1.2) were, respectively, diluted with water and applied under submerged condition so that the active ingredients became the prescribed amounts, respectively. The state of growth was visually observed 21 days after application, and evaluation and calculation were carried out in the same manner as in the above Test Example 1.
Paddy field soil was put into a 1/1,700 are pot, and mixed seeds of false pimpernel (Lindernia pyxidaria), abunome (Dopatrium junceum), long stem waterwort (Elatine triandra SCHK.) and toothcup (Rotala india) were sown and left to stand under an irrigated condition with a water depth of 3.5 cm. When false pimpernel reached two leaf-pair stage, a wettable powder of compound A2 and an emulsifiable concentrate of compound (B8.1) were, respectively, diluted with water and applied under submerged condition so that the active ingredients became the prescribed amounts, respectively. The state of growth was visually observed 22 days after application, and evaluation and calculation were carried out in the same manner as in the above Test Example 1.

[4] = 504 h, 3.0 to 3.3 leaf stage, 21 days after application
[5] = 528 h, 2.5 to 3.0 leaf stage, 22 days after application

COc1cc(OC)nc(NC(=O)NS(=O)(=O)c2c(-c3nnn(C)n3)cnn2C)n1 [Compound (B1.2), azimsulfuron]
inhibition at 2.3 g/ha [1, 4]: 0%
inhibition at 4.5 g/ha [1, 4]: 7%
inhibition at 2.3 g/ha [1, 5]: 0%
inhibition at 4.5 g/ha [1, 5]: 53%
inhibition at 3 g/ha ([1]; 696 h, 0.03 g/a, 2.4 to 3.2 leaf stage, 29 days after application, Test Example 45): 30%
inhibition at 6 g/ha ([1]; 696 h, 0.06 g/a, 2.4 to 3.2 leaf stage, 29 days after application, Test Example 45): 57%
inhibition at 7.5 g/ha ([1]; 696 h, 0.075 g/a, 2.4 to 3.2 leaf stage, 29 days after application, Test Example 45): 60%
inhibition at 1.25 g/ha ([2]; 0.0125 g/a): 20%
inhibition at 1.5 g/ha ([2]; 0.015 g/a): 33%
inhibition at 1.88 g/ha ([2]; 0.0188 g/a): 58%
inhibition at 12 g/ha [3]: 60%
